In the NIST ThermoML archive (doi:10.1021/acs.jced.6b00718):
± gives the expanded uncertainty stated by the source.

What was measured:
[1] = for viscosity / mass density: 101 kPa; for viscosity / mass density / electrical conductivity: Liquid; for viscosity: Falling or rolling sphere viscometry; for mass density: Vibrating tube method; for electrical conductivity: 101.33 kPa, Alternating current cell with electrodes; for Normal melting temperature: DTA
[2] = xn = mol fraction of the nth substance listed; details: 101 kPa, Liquid, x1 = 1; for viscosity: Falling or rolling sphere viscometry; for mass density: Vibrating tube method

SMILES	viscosity ([1]; 293.15 K)	mass density ([1]; 293.15 K)	viscosity ([1]; 298.15 K)	mass density ([1]; 298.15 K)	viscosity ([1]; 303.15 K)	mass density ([1]; 303.15 K)	viscosity ([1]; 313.15 K)	mass density ([1]; 313.15 K)	viscosity ([1]; 323.15 K)	mass density ([1]; 323.15 K)	viscosity ([1]; 333.15 K)	mass density ([1]; 333.15 K)	viscosity ([2]; 293.15 K)	mass density ([2]; 293.15 K)	viscosity ([2]; 298.15 K)	mass density ([2]; 298.15 K)	viscosity ([2]; 303.15 K)	mass density ([2]; 303.15 K)	viscosity ([2]; 313.15 K)	mass density ([2]; 313.15 K)	further results
CCCC[N+]1(C)CCCC1.O=S(=O)([N-]S(=O)(=O)C(F)(F)F)C(F)(F)F	98.72 ± 2.4 mPa·s	1399.8 ± 2.8 kg/m3	77.66 ± 1.3 mPa·s	1395.2 ± 2.8 kg/m3	62.29 ± 0.6 mPa·s	1390.7 ± 2.8 kg/m3	41.87 ± 0.42 mPa·s	1381.7 ± 2.8 kg/m3	29.61 ± 0.29 mPa·s	1372.8 ± 2.8 kg/m3	21.82 ± 0.22 mPa·s	1363.8 ± 2.8 kg/m3	–	–	–	–	–	–	–	–	electrical conductivity ([1]; 293.4 K): 0.22 ± 0.006 S/m; electrical conductivity ([1]; 296.1 K): 0.249 ± 0.006 S/m; electrical conductivity ([1]; 299.3 K): 0.285 ± 0.008 S/m; electrical conductivity ([1]; 303.3 K): 0.334 ± 0.008 S/m; electrical conductivity ([1]; 309.3 K): 0.419 ± 0.01 S/m; electrical conductivity ([1]; 313.2 K): 0.481 ± 0.012 S/m; electrical conductivity ([1]; 320 K): 0.6 ± 0.014 S/m; electrical conductivity ([1]; 323.2 K): 0.66 ± 0.016 S/m; electrical conductivity ([1]; 333.5 K): 0.88 ± 0.02 S/m; Normal melting temperature ([1]; Metastable crystal): -20 ± 2 °C
CCCC[N+]1(C)CCCC1.O=S(=O)([N-]S(=O)(=O)C(F)(F)F)C(F)(F)F + CCCC#N	–	–	–	–	–	–	–	–	–	–	–	–	98.72 ± 6.3 mPa·s	1399.8 ± 2.8 kg/m3	77.66 ± 4.8 mPa·s	1395.2 ± 2.8 kg/m3	62.29 ± 3.8 mPa·s	1390.7 ± 2.8 kg/m3	41.87 ± 2.5 mPa·s	1381.7 ± 2.8 kg/m3	viscosity ([2]; 323.15 K): 29.61 ± 1.8 mPa·s; mass density ([2]; 323.15 K): 1372.8 ± 2.8 kg/m3; viscosity ([2]; 333.15 K): 21.82 ± 1.3 mPa·s; mass density ([2]; 333.15 K): 1363.8 ± 2.8 kg/m3
CCCC[N+]1(C)CCCC1.O=S(=O)([N-]S(=O)(=O)C(F)(F)F)C(F)(F)F + N#CCCCC#N	–	–	–	–	–	–	–	–	–	–	–	–	98.72 ± 6.3 mPa·s	1399.8 ± 2.8 kg/m3	77.66 ± 4.8 mPa·s	1395.2 ± 2.8 kg/m3	62.29 ± 3.8 mPa·s	1390.7 ± 2.8 kg/m3	41.87 ± 2.5 mPa·s	1381.7 ± 2.8 kg/m3	viscosity ([2]; 323.15 K): 29.61 ± 1.8 mPa·s; mass density ([2]; 323.15 K): 1372.8 ± 2.8 kg/m3; viscosity ([2]; 333.15 K): 21.82 ± 1.3 mPa·s; mass density ([2]; 333.15 K): 1363.8 ± 2.8 kg/m3
CCCC[N+]1(C)CCCC1.O=S(=O)([N-]S(=O)(=O)C(F)(F)F)C(F)(F)F + N#CCCCCC#N	–	–	–	–	–	–	–	–	–	–	–	–	98.72 ± 6.3 mPa·s	1399.8 ± 2.8 kg/m3	77.66 ± 4.8 mPa·s	1395.2 ± 2.8 kg/m3	62.29 ± 3.8 mPa·s	1390.7 ± 2.8 kg/m3	41.87 ± 2.5 mPa·s	1381.7 ± 2.8 kg/m3	viscosity ([2]; 323.15 K): 29.61 ± 1.8 mPa·s; mass density ([2]; 323.15 K): 1372.8 ± 2.8 kg/m3; viscosity ([2]; 333.15 K): 21.82 ± 1.3 mPa·s; mass density ([2]; 333.15 K): 1363.8 ± 2.8 kg/m3
CCCC#N [butanenitrile]	0.88 ± 0.05 mPa·s	791.1 ± 1.6 kg/m3	0.86 ± 0.05 mPa·s	786.4 ± 1.6 kg/m3	0.84 ± 0.05 mPa·s	781.8 ± 1.6 kg/m3	0.81 ± 0.05 mPa·s	772.4 ± 1.6 kg/m3	0.78 ± 0.05 mPa·s	763 ± 1.5 kg/m3	0.75 ± 0.05 mPa·s	753.5 ± 1.5 kg/m3	–	–	–	–	–	–	–	–	–
N#CCCCCC#N [hexanedinitrile]	7.17 ± 0.44 mPa·s	962.3 ± 1.9 kg/m3	6.31 ± 0.38 mPa·s	958.6 ± 1.9 kg/m3	5.53 ± 0.34 mPa·s	954.8 ± 1.9 kg/m3	4.54 ± 0.28 mPa·s	947.2 ± 1.9 kg/m3	3.73 ± 0.23 mPa·s	939.8 ± 1.9 kg/m3	3.02 ± 0.18 mPa·s	932.3 ± 1.9 kg/m3	–	–	–	–	–	–	–	–	Normal melting temperature ([1]; Crystal): 6.2 ± 2 °C
N#CCCCC#N [pentanedinitrile]	6.97 ± 0.07 mPa·s	987 ± 2 kg/m3	6.12 ± 0.06 mPa·s	983.1 ± 2 kg/m3	5.39 ± 0.05 mPa·s	979.1 ± 2 kg/m3	4.25 ± 0.04 mPa·s	971.2 ± 2 kg/m3	3.47 ± 0.03 mPa·s	963.4 ± 1.9 kg/m3	2.88 ± 0.03 mPa·s	955.6 ± 1.9 kg/m3	–	–	–	–	–	–	–	–	–
